Data as given in patent US20090028847A1, “MULTIPLE MYELOMA AND AL AMYLOID IMMUNOTHERAPY TARGETING IMMUNOGLOBULIN LIGHT CHAINS AND USES THEREOF” (TRUSTEES OF BOSTON UNIVERSITY, priority 2007, published 2009).

How the values were obtained:
HLA-A2 = HLA-A2 (Homo sapiens, UniProt P04439, D140Y/D185E/D98H/E176V/E277Q/G131W/G231S/I119V/I121R/I166T/I218V/L300P/L318F/N151K/N90K/P208A/P217A/Q86G/Q94H/R138H/R169H/T345S); assay: Cell-based fluorescence peptide/MHC (HLA-A2) binding and stability assay; details: for peptide binding to HLA-A2: FIG. 1, fluorescence shift (FL1) in presence vs absence of peptide
From the text: The native Ig λ62-10 is shown in panel A, and the heteroclitic Ig λ62-10 is show in panel B, with the shift to the right (filled in curve) in the presence of the compared to their absence (unfilled curve) indicating Ig λ62-10 peptide binding to HLA-A2 (FL1).
The inventors discovered, using Ig light chain sequencing studies with bone marrow aspirates from 264 AL amyloid subjects the relative frequency of light chain subtypes in AL amyloidosis. Selecting the over-represented light chains in AL amyliod subjects, the inventors evaluated the affinity for formation of stable complexes for the HLA-A*0201 (HLA-A2)-binding peptides using three algorithms to predict the stability of peptide-MHC class I complexes. One such subtype (lambda 6; 16% of all AL amyloidosis cases) contains a conserved framework I sequence (lambda 6 (2-10)) predicted to bind stably to HLA-A2. The inventors confirmed this prediction using a standard fluorescence assay. Subsequently, the inventors tested the ability to induce CTL capable of lysing peptide-pulsed or Ig lambda 6-expressing human B cell tumors by immunizing HLA-A2 transgenic, (HHD) mice (Firat et al, 1999) with the lambda 6 (2-10) peptide. The investigators also tested the ability of lambda 6 (2-10) peptide-induced CTL to cross-react with plasma cells expressing a related lambda light chain subtype (lambda 2). Using public web-based algorithms we identified potential immunogenic peptides from a human immunoglobulin light chain (lambda 6) which causes 16-20% of all AL amyloidosis. Culture based assays supported the likelihood that the identified peptide would be immunogenic.

[1] = tested on: B cell lymphoblastoma (JY) cells pulsed with peptide; assay: Chromium-release killing assay with CTL from peptide-immunized HHD mice, peptide-pulsed JY targets; format: ex vivo; details: for CTL lysis of peptide-pulsed target cells: T cells of HHD mice immunized with the peptide, not with negative control peptide
Protocol: (§1) Mice: HHD mice on […] background, transgenic for human MHC Class I (α1 and α2 domains from HLAA*0201, α3 domain from […]) and knockout of H2-D^b (mouse MHC Class I).
(§2) Immunizations: 200 μg peptide plus 200 μg HBVc “helper” peptide (to elicit CD4+ T cell help), emulsified in […] Freud's Adjuvant (IFA) is used to immunize the HHD mice subcutaneously in the lower abdominal area.
(§3) Mouse T Cell Culture: Spleens were harvested from the mice and dissociated using sterile frosted glass slides to yield single-cell suspension. Spleenocytes are plated at approximately 1×10^6 cells/ml and 10% FBS supplemented with L-glutamine, non-essential amino acids and β2-mercaptoethanol. Ex vivo cells were stimulated with 10 μg/ml peptide and fed every 2-3 days with medium and 2 ng/ml rIL-2 for 7-10 days.
Cell Lines: Human cell lines which naturally express the HLAA*0201 allele of MHC Class I are grown in RPMI 1640 and 10% FBS supplemented with L-glutamine. Cell lines include the JY and U66 lymphobastoma cell lines of B cell origin and the T2 cell line of T cell origin.
(§4) Killing Assay: Target cell lines are loaded with radioactive sodium chromate (^51Cr) and pulsed with 20 μg/ml peptide or as a negative control peptide, flu matrix protein MP-58. Spleen cells are plated with targets at various effector target ratios and incubated at 37° C., 5% CO2 overnight. Supernatants are harvested from each well and assayed for radioactive chromium indicating release from lysed cells. % specific lysis was determined by subtracting the control minimum release from experimental wells and dividing by maximum-minimum release.
Statistics: Statistical analysis was performed with Statview. Data from killing assays of a minimum of three mice are presented as means ± standard errors (SE). ANOVA was used to determine the statistical significance compared to the negative control peptide.

[2] = tested on: JY cells transfected with full length λ6 gene; assay: Chromium-release killing assay with CTL from peptide-immunized HHD mice, JY cells transfected with full length λ6 gene; format: in vivo; details: FIG. 4
Protocol: as §1, §2, §3
(§5) Cell Lines: Human cell lines which naturally express the HLAA*0201 allele of MHC Class I are grown in RPMI 1640 and 10% FBS supplemented with L-glutamine. […]
as §4, with “Spleen cells are plated with targets at various effector target ratios and incubated at 37° C., 5% CO2 overnight.” left out, “release. […]” for “release.”

[3] = tested on: Ig λ2-expressing U266 multiple myeloma plasma cells; assay: Chromium-release killing assay with CTL from peptide-immunized HHD mice, U266 targets; format: ex vivo; details: FIG. 5
Protocol: as §1, §2, §3, §5
as §4, with “Spleen cells are plated with targets at various effector target ratios and incubated at 37° C., 5% CO2 overnight.” left out, “release. […]” for “release.”

[4] = target: T1, HLA-A*0201 (HLA-A2) on cells (human); assay: flow cytometry, HLA-A2 fluorescence (FL1) on cells with and without peptide
T1 construct: whole, on cells; also called MHC Class I

[5] = T cells of HHD mice immunized with the peptide

Molecule: FMLTQPHSV [λ62-10, 9mer from framework 1 of the human lambda 6 immunoglobulin light chain]
- peptide binding to HLA-A2 (HLA-A2): binds to HLA-A2
- CTL lysis of peptide-pulsed target cells [1]: lysed target cells pulsed with the λ6 peptide
- mice that produced a CTL response ([1]; of 24 mice immunized, FIG. 2): 17 mice
- CTL lysis of targets transfected with full length λ6 gene [2, 5]: lysed targets transfected with the gene for the full length λ6 protein
- mice that produced a CTL response ([2]; of 16 mice immunized): 13 mice
- CTL lysis of U266 target cells [3, 5]: lysed U266 target cells pulsed with the λ6 peptide as well as U266 cells not pulsed with a peptide
- mice that produced a CTL response ([3]; of 11 mice immunized): 8 mice

Molecule: SLFPRLYPV (listed as Mus musculus) [mBlimp470-478, native peptide of the murine Blimp-1 protein]
- CTL lysis of peptide-pulsed target cells [1]: lysed target cells pulsed with the native murine Blimp470-478 peptide
- mice that produced a CTL response ([1]; of 12 mice immunized, FIG. 7): 10 mice

Molecule: YLFPRLYPV (listed as Mus musculus) [heteroclitic mBlimp470-478, heteroclitic variant of mBlimp470-478]
- CTL lysis of peptide-pulsed target cells [1]: lysed target cells pulsed with the hc murine Blimp470-478 peptide
- mice that produced a CTL response ([1]; of 10 mice immunized, FIG. 8): 7 mice

Molecule: YMLTQPHSV [het λ62-10, heteroclitic variant of lambda 6(2-10), substitution at position 1]
- peptide binding to HLA-A2 (HLA-A2; listed as YMLTQPHSV (SEQ ID NO: 2)): higher affinity
- peptide binding to HLA-A2 (HLA-A2; listed as heteroclitic Ig λ62-10): binds to HLA-A2
- stability of peptide/MHC complex (HLA-A2; FIG. 9, as early as 2 hours and over at least 24 hours): more stable than the native lambda 6 peptide
- CTL lysis of peptide-pulsed target cells [1]: lysed target cells pulsed with either heteroclitic λ6 peptide or the native λ6 peptide
- mice that produced a CTL response ([1]; of 8 mice immunized, FIG. 3): 7 mice

Molecule: FMLTQPHSV (also called λ62-10; Ig λ62-10) [lambda 6(2-10) peptide]
- binding result [4]: binds

B1: heteroclitic lambda 6(2-10) peptide (peptide)
peptide: YMLTQPHSV
notes: Variant of the native lambda 6(2-10) peptide with one substitution at position 1 of the 9mer; also called het λ62-10; heteroclitic Ig λ62-10
- binding result [4]: binds
